According to ChEMBL document CHEMBL3045820, “Discovery of a novel histone deacetylase 8 inhibitor by virtual screening” (Med Chem Res, 2012):

Molecular target: T1, Histone deacetylase 8 (Homo sapiens, UniProt Q9BY41)
T1 sequence (Q9BY41 whole entry): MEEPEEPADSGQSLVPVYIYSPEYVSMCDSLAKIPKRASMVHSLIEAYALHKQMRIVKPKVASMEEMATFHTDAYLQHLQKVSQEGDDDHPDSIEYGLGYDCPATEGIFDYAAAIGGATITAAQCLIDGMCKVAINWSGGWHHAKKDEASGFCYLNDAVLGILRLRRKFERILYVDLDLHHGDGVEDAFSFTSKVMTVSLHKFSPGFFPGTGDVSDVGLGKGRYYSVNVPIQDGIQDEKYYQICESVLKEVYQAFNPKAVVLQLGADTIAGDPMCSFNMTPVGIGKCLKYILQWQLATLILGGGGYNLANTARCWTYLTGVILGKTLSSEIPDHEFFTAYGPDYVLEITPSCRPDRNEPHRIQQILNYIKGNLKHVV
Experiment: Inhibition of HDAC8 (unknown origin) expressed in Escherichia coli using Boc-Lys (acetyl)-AMC as substrate incubated for 5 min prior to substrate addition measured after 30 min by fluorescence assay

- IC50: 1.6 µM
SMILES: COc1cc(C(=O)NN)ccc1COc1ccc(Cl)c(C)c1
